According to US20030232902A1, “Ink composition and ink - jet recording method” (FUJI PHOTO FILM CO., LTD., priority 2002, published 2003):

Assay: Water solubility of high-boiling point organic solvent
Format: physicochemical
Details: 25° C.
Excerpt: Thus, the water solubility is preferably 4 g or below, more preferably 3 g or below, and still more preferably 2 g or below and most preferably 1 g or below.

For (ClCH2CHCHO)3—P═O [SPX-2], which “High-boiling point organic solvent Water Solubility” value is on record?
The value was 0.9 g.

Which “High-boiling point organic solvent Water Solubility” value does the source give for `O=P(OCCCl)(OCCCl)OCCCl` [SPX-3, (ClCH2CH2O)3—P═O] here?
The value was 4.64 g.

With `CCCCCOP(=O)(OCCCCC)OCCCCC` [SPX-4, [(n)C5H11O]3—P═O] as the compound, how does the “High-boiling point organic solvent Water Solubility” value read?
The value was 4.5 g.

Assay: Specific gravity of high-boiling point organic solvent
Format: physicochemical
Details: not given

With (ClCH2CHCHO)3—P═O [SPX-2] as the compound, how does the “High-boiling point organic solvent Specific Gravity” value read?
The value was 1.51.

Which “High-boiling point organic solvent Specific Gravity” value does the source give for `O=P(OCCCl)(OCCCl)OCCCl` [SPX-3, (ClCH2CH2O)3—P═O] here?
Its value is 1.41.

Which “High-boiling point organic solvent Specific Gravity” value does the source give for `CCCCCOP(=O)(OCCCCC)OCCCCC` [SPX-4, [(n)C5H11O]3—P═O] here?
The value was 0.94.

Assay: Solubility of auxiliary solvent in water at 25° C.
Details: Table 1

With `CCCOC(C)=O` [AS-2, propyl acetate] as the compound, how does the “Auxiliary solvent Water solubility” value read?
The value was 2 g.

Which “Auxiliary solvent Water solubility” value does the source give for `CCOC(C)=O` [AS-1, ethyl acetate] here?
The value was 8 g.

Same assay, conditions: in 100 g of water at 25° C.

With `CCCCOC(C)=O` [AS-6, butyl acetate] as the compound, how does the “Solubility of auxiliary solvent in water at 25° C.” value (shortened to “Solubility of auxiliary solvent”) read?
The value was 2 g.

With `CCOCCOC(C)=O` [AS-5, 2-ethoxyethyl acetate] as the compound, how does the “Solubility of auxiliary solvent” value read?
Its value is 25 g.

With 2-ethylene acetate [AS-4] as the compound, how does the “Solubility of auxiliary solvent” value read?
Its value is 20 g.

With `O=C1CCCCC1` [AS-11, cyclohexanone] as the compound, how does the “Solubility of auxiliary solvent” value read?
Its value is 15 g.

For `CCOC(=O)CC` [AS-7, ethyl propionate], which “Solubility of auxiliary solvent” value is on record?
Its value is 2 g.

With `CCCOC(C)=O` [AS-2, propyl acetate] as the compound, how does the “Solubility of auxiliary solvent” value read?
Its value is 2 g.

Which “Solubility of auxiliary solvent” value does the source give for `CCCCOCCOCCOC(C)=O` [AS-10, 2-(2-n-butoxyethoxy)ethyl acetate] here?
Its value is 2 g.

With `CCOC(C)=O` [AS-1, ethyl acetate] as the compound, how does the “Solubility of auxiliary solvent” value read?
Its value is 8 g.

Which “Solubility of auxiliary solvent” value does the source give for `CCC(CC)COC(C)=O` [AS-3, 2-ethylbutyl acetate] here?
Its value is less than 1 g.
